Melting point data for one molecule are collected here from patent publication US20060160814A1, “Phosphodiesterase 10 inhibitors” (priority 2004, published 2006).

By melting point is commonly meant the temperature of the solid-liquid transition.

Structures can show the parent of a compound that is named as a salt.

With `COc1cc2nncc(C(C#N)C3=NC(C)(C)CN3C(C)C)c2cc1OC` (stereo not shown) (as salt: hydrochloride) [Compound 110, (4,5-Dihydro-4,4-dimethyl-1-isopropyl-1H-imidazol-2-yl) (6,7-dimethoxycinnolin-4-yl)-acetonitrile hydrochloride], the melting point is 210 to 212 °C (dec.).
